# Measurements published in patent US20200206139A1, “COMPOSITIONS FOR THE IMPROVED DELIVERY OF DRUGS” (BOARD OF REGENTS, THE UNIVERSITY OF TEXAS SYSTEM, priority 2017, published 2020).
# Assays:
# [1] = Atovaquone solubility in pharmaceutical excipients; type: physicochemical; conditions: thermodynamic from solid
# Experimental: Excess atovaquone (100 mg/mL) (Molekula, Irvine, Calif.) was added to each of the following excipients: Benzyl Benzoate, Tween 20, Tween 80, PEG 200, PEG 400, Labrafac, Labrafil, Capryol, Capmul, Captex, Propylene Glycol and Isopropyl Palmitate. The mixtures were shaken at 100 RPM at 37° C. for 48 hours. Each individual sample was centrifuged at 3000 RPM for 10 minutes. The supernatant was then filtered through a 0.45 μm PTFE filter. Quantification of atovaquone content in the filtrate was performed using a Dionex HPLC (Thermo Fisher Scientific Inc., Waltham, Mass.) with an Inertsil® ODS-2 column (5 μm, 4.6×250 mm) with a mobile phase 0.1% TFA ACN: 0.1% TFA H2O (80:20) at flow rate of 2 mL/min and a run time of 10 minutes.
# [2] = Atovaquone solubility in pharmaceutical excipients; type: physicochemical; conditions: thermodynamic from solid; remark: listed apart in the source
structure (smiles),measurement,setting,value
O=C1C(O)=C([C@H]2CC[C@H](c3ccc(Cl)cc3)CC2)C(=O)c2ccccc21 [atovaquone],solubility at 48 h,"[1]; Benzyl Benzoate (neat excipient), organic solvent or mixture, in Benzyl Benzoate, 37° C.",14300 µg/mL
same,solubility at 48 h,"[1]; Capryol (neat excipient), oil or lipid, in Capryol, 37° C.",5540 µg/mL
same,solubility at 48 h,"[1]; Isopropyl Palmitate (neat excipient), oil or lipid, in Isopropyl Palmitate, 37° C.",2460 µg/mL
same,solubility at 48 h,"[1]; Labrafil (neat excipient), oil or lipid, in Labrafil, 37° C.",3980 µg/mL
same,solubility at 48 h,"[1]; Labrasol (neat excipient), organic solvent or mixture, in Labrasol, 37° C.",10200 µg/mL
same,solubility at 48 h,"[1]; PEG 200 (neat excipient), organic solvent or mixture, in PEG 200, 37° C.",4780 µg/mL
same,solubility at 48 h,"[1]; PEG 400 (neat excipient), organic solvent or mixture, in PEG 400, 37° C.",7220 µg/mL
same,solubility at 48 h,"[1]; Tween 20 (neat excipient), organic solvent or mixture, in Tween 20, 37° C.",9690 µg/mL
same,solubility at 48 h,"[2]; Capmul (neat excipient), oil or lipid, in Capmul, 37° C.",3470 µg/mL
same,solubility at 48 h,"[2]; Captex (neat excipient), oil or lipid, in Captex, 37° C.",4590 µg/mL
same,solubility at 48 h,"[2]; Labrafac (neat excipient), oil or lipid, in Labrafac, 37° C.",4080 µg/mL
same,solubility at 48 h,"[2]; Propylene Glycol (neat excipient), organic solvent or mixture, in Proplylene Gycol, 37° C.",380 µg/mL
same,solubility at 48 h,"[2]; Tween 80 (neat excipient), organic solvent or mixture, in Tween 80, 37° C.",10200 µg/mL
